Molecular target: hKIF18A (1-374) (Homo sapiens (Human), UniProt Q8NI77)
Assay: Inhibition of KIF18A microtubule-dependent ATPase activity (ADP-Glo)
Assay type: biochemical
Conditions: 4 nM hKIF18A (1-374)
Procedure, shortened: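 Reaction was started with pre-formed microtubules and ATP (0.2 mg/mL and 2.0 mM in the added mix) and run 60 min at 28 °C. ADP was read by ADP-Glo luminescence, and IC50 came from a four-parameter fit of % inhibition.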

Chain of hKIF18A (1-374) (Q8NI77 1-374): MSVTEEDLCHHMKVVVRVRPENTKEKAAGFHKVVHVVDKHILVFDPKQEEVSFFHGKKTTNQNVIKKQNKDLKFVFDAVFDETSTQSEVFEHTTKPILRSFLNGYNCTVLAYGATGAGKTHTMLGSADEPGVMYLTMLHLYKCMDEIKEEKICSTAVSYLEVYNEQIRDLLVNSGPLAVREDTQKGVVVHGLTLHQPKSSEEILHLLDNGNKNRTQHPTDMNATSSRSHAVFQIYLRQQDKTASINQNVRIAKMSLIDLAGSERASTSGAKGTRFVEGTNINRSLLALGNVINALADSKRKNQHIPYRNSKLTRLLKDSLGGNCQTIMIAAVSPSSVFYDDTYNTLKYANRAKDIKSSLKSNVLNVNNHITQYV

| IC50 [nM] | Compound |
| --- | --- |
| 27 | Cc1cc(-c2cn(-c3ccc(NS(=O)(=O)CCCO)cc3N3CCC4(CC3)CC4)nn2)nc(N2CCC(F)(F)CC2)n1 [Compound 151, N-(4-(4-(2-(4,4-difluoropiperidin-1-yl)-6-methylpyrimidin-4-yl)-1H-1,2,3-triazol-1-yl)-3-(6-azaspiro[2.5]octan-6-yl)phenyl)-3-hydroxypropane-1-sulfonamide] |
| 39 | Cc1cc(-c2cn(-c3ccc(NS(C)(=O)=O)cc3N3CCC4(CC3)CC4)nn2)nc(N2CCC(F)(F)CC2)c1 [Compound 14, N-(4-(4-(6-(4,4-difluoropiperidin-1-yl)-4-methylpyridin-2-yl)-1H-1,2,3-triazol-1-yl)-3-(6-azaspiro[2.5]octan-6-yl)phenyl)methanesulfonamide] |
| 3600 | CS(=O)(=O)Nc1ccc(-c2nc(-c3cccc(N4CCOCC4)n3)no2)c(N2CCC3(CC2)CC3)c1 [Compound 163, N-(4-(3-(6-morpholinopyridin-2-yl)-1,2,4-oxadiazol-5-yl)-3-(6-azaspiro[2.5]octan-6-yl)phenyl)methanesulfonamide] |
| 7.1 | Cc1cc(-c2cn(-c3ccc(NS(=O)(=O)CCO)cc3N3CCCCCC3)nn2)nc(N2CCC(F)(F)CC2)n1 [Compound 75, N-(3-(azepan-1-yl)-4-(4-(2-(4,4-difluoropiperidin-1-yl)-6-methylpyrimidin-4-yl)-1H-1,2,3-triazol-1-yl)phenyl)-2-hydroxyethane-1-sulfonamide] |
| 7.3 | Cc1ncc(-c2cn(-c3ccc(NS(=O)(=O)CCO)cc3N3CCC4(CC3)CC4)nn2)nc1N1CCC(F)(F)CC1 [Compound 124, N-(4-(4-(6-(4,4-difluoropiperidin-1-yl)-5-methylpyrazin-2-yl)-1H-1,2,3-triazol-1-yl)-3-(6-azaspiro[2.5]octan-6-yl)phenyl)-2-hydroxyethane-1-sulfonamide] |
| 9 | O=S(=O)(CCO)Nc1ccc(-n2cc(-c3ccc(C4=CCCC4)o3)nn2)c(N2CCC3(CC2)CC3)c1 [Compound 125, N-(4-(4-(5-(cyclopent-1-en-1-yl)furan-2-yl)-1H-1,2,3-triazol-1-yl)-3-(6-azaspiro[2.5]octan-6-yl)phenyl)-2-hydroxyethane-1-sulfonamide] |
| 14 | O=S(=O)(CCO)Nc1ccc(-n2cc(-c3nc(C4=CCC(F)(F)CC4)ccc3F)nn2)c(N2CCC3(CC2)CC3)c1 [Compound 159, N-(4-(4-(6-(4,4-difluorocyclohex-1-en-1-yl)-3-fluoropyridin-2-yl)-1H-1,2,3-triazol-1-yl)-3-(6-azaspiro[2.5]octan-6-yl)phenyl)-2-hydroxyethane-1-sulfonamide] |
| 10 | O=S(=O)(CCO)Nc1ccc(-n2cc(-c3ccn(C4CCCC4)n3)nn2)c(N2CCC3(CC2)CC3)c1 [Compound 83, N-(4-(4-(1-cyclopentyl-1H-pyrazol-3-yl)-1H-1,2,3-triazol-1-yl)-3-(6-azaspiro[2.5]octan-6-yl)phenyl)-2-hydroxyethane-1-sulfonamide] |
| 8.8 | N-(4-(4-(2-(cyclopentyloxy)-6-methylpyrimidin-4-yl)-1H-1,2,3-triazol-1-yl)-3-(6-azaspiro[2.5]octan-6-yl)phenyl)-2-hydroxyethane-1-sulfonamide [Compound 109] |
| 17 | Cc1cc(-c2cn(-c3ccc(NS(=O)(=O)CCO)cc3N3CCC4(CC3)CC4)nn2)nc(N2CCC(F)(F)CC2)c1 [Compound 48, N-(4-(4-(6-(4,4-difluoropiperidin-1-yl)-4-methylpyridin-2-yl)-1H-1,2,3-triazol-1-yl)-3-(6-azaspiro[2.5]octan-6-yl)phenyl)-2-hydroxyethane-1-sulfonamide] |
| 36 | CS(=O)(=O)Nc1ccc(-c2ncc(-c3cccc(N4CC(F)(F)C4)n3)[nH]2)c(N2CCC3(CC2)CC3)c1 [Compound 33, N-(4-(5-(6-(3,3-difluoroazetidin-1-yl)pyridin-2-yl)-1H-imidazol-2-yl)-3-(6-azaspiro[2.5]octan-6-yl)phenyl)methanesulfonamide] |
| 12 | O=S(=O)(CCO)Nc1ccc(-n2cc(-c3ccn(CC4CCC4)n3)nn2)c(N2CCC3(CC2)CC3)c1 [Compound 77, N-(4-(4-(1-(cyclobutylmethyl)-1H-pyrazol-3-yl)-1H-1,2,3-triazol-1-yl)-3-(6-azaspiro[2.5]octan-6-yl)phenyl)-2-hydroxyethane-1-sulfonamide] |
| 29 | O=S(=O)(CCO)Nc1ccc(-n2cc(-c3ccn(C4CCC(F)(F)CC4)n3)nn2)c(N2CCCCC2)c1 [Compound 76, N-(4-(4-(1-(4,4-difluorocyclohexyl)-1H-pyrazol-3-yl)-1H-1,2,3-triazol-1-yl)-3-(piperidin-1-yl)phenyl)-2-hydroxyethane-1-sulfonamide] |
| 23 | CS(=O)(=O)Nc1ccc(-n2cc(-c3cccc(N4CCC(F)(F)CC4)n3)nn2)c(N2CCC(C(F)(F)F)CC2)c1 [Compound 20, N-(4-(4-(6-(4,4-difluoropiperidin-1-yl)pyridin-2-yl)-1H-1,2,3-triazol-1-yl)-3-(4-(trifluoromethyl)piperidin-1-yl)phenyl)methanesulfonamide] |
| 2.8 | O=S(=O)(CCO)Nc1cc(N2CCC3(CC2)CC3)c(-n2cc(-c3cncc(N4CCC(F)(F)CC4)n3)nn2)cc1F [Compound 144, N-(4-(4-(6-(4,4-difluoropiperidin-1-yl)pyrazin-2-yl)-1H-1,2,3-triazol-1-yl)-2-fluoro-5-(6-azaspiro[2.5]octan-6-yl)phenyl)-2-hydroxyethane-1-sulfonamide] |
| 11 | CS(=O)(=O)Nc1ccc(-n2cc(-c3cccc(CN4CCC(F)(F)CC4)n3)nn2)c(N2CCC3(CC2)CC3)c1 [Compound 23, N-(4-(4-(6-((4,4-difluoropiperidin-1-yl)methyl)pyridin-2-yl)-1H-1,2,3-triazol-1-yl)-3-(6-azaspiro[2.5]octan-6-yl)phenyl)methanesulfonamide] |
| 16 | N-(4-(4-(2-((3S,4R)-3,4-difluoropyrrolidin-1-yl)-6-methylpyrimidin-4-yl)-1H-1,2,3-triazol-1-yl)-3-(6-azaspiro[2.5]octan-6-yl)phenyl)-2-hydroxyethane-1-sulfonamide [Compound 107] |
| 27 | O=S(=O)(CCO)Nc1ccc(-c2ncc(-c3cccc(N4CCC(F)(F)CC4)n3)[nH]2)c(N2CCC3(CC2)CC3)c1 [Compound 35, N-(4-(5-(6-(4,4-difluoropiperidin-1-yl)pyridin-2-yl)-1H-imidazol-2-yl)-3-(6-azaspiro[2.5]octan-6-yl)phenyl)-2-hydroxyethane-1-sulfonamide] |
| 5.5 | CC1CCN(c2cc(NS(=O)(=O)CCO)ccc2-n2cc(-c3cncc(N4CCC(F)(F)CC4)n3)nn2)CC1 [Compound 143, N-(4-(4-(6-(4,4-difluoropiperidin-1-yl)pyrazin-2-yl)-1H-1,2,3-triazol-1-yl)-3-(4-methylpiperidin-1-yl)phenyl)-2-hydroxyethane-1-sulfonamide] |
| 3.8 | O=C(O)c1cc(-c2cn(-c3ccc(NS(=O)(=O)CCO)cc3N3CCC4(CC3)CC4)nn2)nc(N2CCC(F)(F)CC2)n1 [Compound 158, 2-(4,4-difluoropiperidin-1-yl)-6-(1-(4-((2-hydroxyethyl)sulfonamido)-2-(6-azaspiro[2.5]octan-6-yl)phenyl)-1H-1,2,3-triazol-4-yl)pyrimidine-4-carboxylic acid] |
| 4.7 | CS(=O)(=O)Nc1ccc(-n2cc(-c3ccc(C(O)C4CCCC4)o3)nn2)c(N2CCC3(CC2)CC3)c1 (stereo not shown) [Compound 25, N-(4-(4-(5-(cyclopentyl(hydroxy)methyl)furan-2-yl)-1H-1,2,3-triazol-1-yl)-3-(6-azaspiro[2.5]octan-6-yl)phenyl)methanesulfonamide] |
| 45 | Cc1cc(-c2cnc(-c3ccc(NS(C)(=O)=O)cc3N3CCC4(CC3)CC4)[nH]2)nc(N2CCC(F)(F)CC2)c1 [Compound 28, N-(4-(5-(6-(4,4-difluoropiperidin-1-yl)-4-methylpyridin-2-yl)-1H-imidazol-2-yl)-3-(6-azaspiro[2.5]octan-6-yl)phenyl)methanesulfonamide] |
| 8.1 | Cc1cc(-c2cn(-c3ccc(NS(=O)(=O)CCO)cc3N3CCC4(CC3)CC4)nn2)nc(N2CC3CC3C2)n1 (stereo not shown) [Compound 99, N-(4-(4-(2-(3-azabicyclo[3.1.0]hexan-3-yl)-6-methylpyrimidin-4-yl)-1H-1,2,3-triazol-1-yl)-3-(6-azaspiro[2.5]octan-6-yl)phenyl)-2-hydroxyethane-1-sulfonamide] |
| 13 | Cc1cc(-c2cn(-c3ccc(NS(=O)(=O)CCO)cc3N3CCC(F)(F)CC3)nn2)nc(N2CCC(F)(F)CC2)c1 [Compound 80, N-(3-(4,4-difluoropiperidin-1-yl)-4-(4-(6-(4,4-difluoropiperidin-1-yl)-4-methylpyridin-2-yl)-1H-1,2,3-triazol-1-yl)phenyl)-2-hydroxyethane-1-sulfonamide] |
| 83 | CCOC(=O)CS(=O)(=O)Nc1ccc(-c2nnc(-c3cccc(N4CCC(F)(F)CC4)n3)[nH]2)c(N2CCC3(CC2)CC3)c1 [Compound 7, ethyl 2-(N-(4-(5-(6-(4,4-difluoropiperidin-1-yl)pyridin-2-yl)-4H-1,2,4-triazol-3-yl)-3-(6-azaspiro[2.5]octan-6-yl)phenyl)sulfamoyl)acetate] |
| 14 | CCS(=O)(=O)Nc1ccc(-n2cc(-c3ccc(F)c(C(O)C4CCCC4)n3)nn2)c(N2CCC3(CC2)CC3)c1 (stereo not shown) [Compound 134, N-(4-(4-(6-(cyclopentyl(hydroxy)methyl)-5-fluoropyridin-2-yl)-1H-1,2,3-triazol-1-yl)-3-(6-azaspiro[2.5]octan-6-yl)phenyl)ethanesulfonamide] |
| 4.6 | CCS(=O)(=O)Nc1ccc(-n2cc(-c3ccc(C(O)C4CCCC4)o3)nn2)c(N2CCC3(CC2)CC3)c1 (stereo not shown) [Compound 123, N-(4-(4-(5-(cyclopentyl(hydroxy)methyl)furan-2-yl)-1H-1,2,3-triazol-1-yl)-3-(6-azaspiro[2.5]octan-6-yl)phenyl)ethanesulfonamide] |
| 15 | CCS(=O)(=O)Nc1ccc(-n2cc(-c3cccc(S(=O)(=O)NC(C)(C)C)c3)nn2)c(N2CCC(C(F)F)CC2)c1 [Compound 118, N-(tert-butyl)-3-(1-(2-(4-(difluoromethyl)piperidin-1-yl)-4-(ethylsulfonamido)phenyl)-1H-1,2,3-triazol-4-yl)benzenesulfonamide] |
